Measurements from article PMC6222787, “Anti-Inflammatory Activities of Compounds Isolated from the Rhizome of Anemarrhena asphodeloides” (Molecules : A Journal of Synthetic Chemistry and Natural …, 2018).
Several values for one entry are separate records, joined by “and”; a condition that tells them apart may be missing. Identical values can stand only once. Like-named read-outs stand apart in the source and are kept apart here.

Columns and labels:
in vitro = conditions: mouse, % Cell Viability
Procedure: (§6) The N9 microglial cell line was obtained from China Cell Line Bank. The cells were grown at 37 °C in IMDM supplemented with 10% heat-inactivated FBS under a humidified atmosphere of 5% CO2. In this experiment, cells were allowed to acclimate for 24 h before treatments.
(§7) Cell viability was evaluated by the MTT reduction assay [36]. Cells were seeded in 96-well plates at a density of 2 × 10^4 cells/well and allowed to grow for 24 h before treatments. Thereafter, 100 μL medium containing various concentrations (0–50 μM) of compounds were added and incubated for another 24 h. MTT was dissolved in DD water (5 mg/mL) and 10 μL were added to each well. After 4 h, the medium was removed and 100 μL DMSO were filled in each well. The optical density was measured at 490 nm on a Flexstation 3 (Molecular Devices, Silicon Valley, CA, USA).

[1] = system: LPS-induced NO production in N9 microglial cells; assay: LPS-induced NO production (Griess assay); format: cell-based, mouse; conditions: mean ± S.E.M.; for Nitrite: control 4.60, LPS group 31.81 μM; for inhibition at 25 µM / inhibition at 50 µM: Mus musculus, N9, 24 h
Procedure: Figure 2 Inhibitory effects of TBIII (A) and t-HL (B) in LPS-stimulated N9 microglial cells. Cells were pretreated with different concentrations of TBIII and t-HL 1 h prior to the addition of LPS (100 ng/mL) and were further incubated for 24 h. NO production was determined by using the Griess reagent. IC50 values and curve fitting were determined using Graphpad Prism (GraphPad, Avenida, CA, USA).
Accumulation of nitrite, a metabolite of NO in the culture media, was measured by Griess assay as previously reported. Briefly, cells were stimulated with 100 ng/mL of LPS for 24 h in the presence of the test compounds (0–50 μM).

[2] = MTT assay for cell viability; conditions: mouse, N9 microglial cells, % Cell Viability, 24 h, MTT, mean ± S.E.M.
Procedure: as §6, §7

N9 microglial cells [3] = assay: MTT assay for cell viability; conditions: at 25 and 50 μM
Procedure: as §6, §7

[4] = system: various kinds of tumor cells; set-up: method as in PMID 15971131, PMID 28548219, PMID 29393481, PMID 27897231; conditions: cited from earlier work
NF-κB = assay: LPS-induced activation of NF-κB (Western blot, nuclear p65); format: cell-based, mouse; conditions: pretreated 1 h, LPS 100 ng/mL
Procedure: (§1) Figure 6 Effect of TBIII and t-HL on LPS-induced activation of Akt (A,C) and NF-κB (B,D) in N9 cells. Cells were treated with different concentrations of TBIII and t-HL for 1 h prior to stimulation with LPS (100 ng/mL). Nuclear and cytoplasmic proteins were obtained and analyzed by western blot. PAR (10 μM) was used as a positive control. The data shown represent the mean ± S.E.M of three independent experiments. * p < 0.05, ** p < 0.01, *** p < 0.001 versus the LPS-treated group; ^# p < 0.05, ^## p < 0.01, ^### p < 0.001 versus the control group.
(§2) N9 cells were plated into 12-well plates (4 × 10^5 cells/well) and pretreated with different concentrations of TBIII and t-HL for 1 h, then stimulated by 100 ng/mL of LPS for 24 h. Nuclear and cytoplasmic proteins were obtained with nuclear and cytoplasmic protein extraction kit (Beyotime Biotechnology, Shanghai, China) according to the manufacturer′s protocol. Proteins were collected by SDS-PAGE Sample Loading Buffer (Yeasen, Shanghai, China) and heated at 99 °C for 10 min. Proteins in sample loading buffer were separated on 10% sodium dodecyl sulfate (SDS)-polyacrylamide gel electrophoresis (PAGE) and followed by transferring to nitrocellulose membranes (Whatman Protran, Dassel, Germany). […] The immunoreactive bands were quantified using the NIH Image J software (NIH, Bethesda, MD, USA).

IL-6 [5] = assay: LPS-induced IL-6 production (ELISA); format: cell-based, mouse; conditions: pretreated 1 h, LPS 100 ng/mL 24 h
Procedure: (§3) Figure 5 Effects of TBIII (A) and t-HL (B) on LPS-induced production of pro-inflammatory cytokines in N9 microglial cells. Cells were pre-treated with TBIII and t-HL for 1 h and then stimulated with LPS (100 ng/mL) for 24 h. The protein levels of TNF-α and IL-6 determined by ELISA according to manufacturer′s instructions. PAR (10 μM) was used as a positive control. The data were obtained from three independent experiments and expressed as the means ± S.E.M. * p < 0.05, ** p < 0.01, *** p < 0.001 versus the LPS-treated group; ^## p < 0.01, ^### p < 0.001 versus the control group.
(§4) N9 cells were plated into 24-well plates (2 × 10^5 cells/well). After cells became adherent, they were pretreated with different concentrations of TBIII and t-HL for 1 h before stimulation with 100 ng/mL of LPS. The supernatants of cultured medium were collected and the production of TNF-α and IL-6 was measured after incubation for 24 h using an ELISA kit according to manufacturer′s instructions.

TNF-α [6] = assay: LPS-induced TNF-α mRNA expression (real-time PCR); format: cell-based, mouse; conditions: pretreated 1 h, LPS 100 ng/mL 4 h, dose-dependent
Procedure: (§5) Figure 4 Effects of TBIII (A) and t-HL (B) on LPS-induced mRNA expression of pro-inflammatory cytokines in N9 microglial cells. Cells were treated with different concentrations of TBIII and t-HL for 1 h and then stimulated with LPS (100 ng/mL) for 4 h. TNF-α and IL-6 mRNA levels were determined by real-time PCR analysis. […] The data were obtained from three independent experiments and expressed as the means ± […] < 0.001 versus the LPS-treated group; ^### p < 0.001 versus the control group. Total RNA was extracted from cells using Trizol reagent (Invitrogen, Carlsbad, CA, USA). Reverse transcription of RNA was performed with the Reverse Transcription System […] kit (Promega, Madison, WI, USA) according to the manufacturer's protocol. The complementary DNA (cDNA) was subsequently subjected to Real-Time PCR to quantify the transcripts of TNF-α and IL-6 using SYBR® Green Real-time PCR Master Mix (TOYOBO, Osaka, Japan). […] The primers for the mouse housekeeping gene glyceraldehyde-3-phosphate dehydrogenase ([…] was performed according to the following conditions: 94 °C for 3 min, 40 cycles of denaturation at 94 °C for 30 s, annealing at 56 °C for 45 s, extension at 72 °C for 30 s, followed by a final extension at 72 °C for 10 min. The quantified fold changes in messenger RNA (mRNA) in each sample were normalized to GAPDH expression and calculated using the 2exp (-ΔΔCt) method.

TNF-α [7] = assay: LPS-induced TNF-α production (ELISA); format: cell-based, mouse; conditions: pretreated 1 h, LPS 100 ng/mL 24 h
Procedure: as §3, §4

Akt = assay: LPS-induced activation of Akt (Western blot); format: cell-based, mouse; conditions: pretreated 1 h, LPS 100 ng/mL
Procedure: as §1, §2

[8] = system: mouse model of postpartum depression; conditions: cited from earlier work
IL-6 [9] = assay: LPS-induced IL-6 mRNA expression (real-time PCR); format: cell-based, mouse; conditions: pretreated 1 h, LPS 100 ng/mL 4 h, dose-dependent
Procedure: as §5

iNOS = iNOS expression by Western blot in LPS-stimulated N9 cells; format: cell-based, mouse; conditions: pretreated 1 h, LPS 100 ng/mL 24 h, dose-dependent
Procedure: Figure 3 Effects of TBIII (A) and t-HL (B) on the expression of iNOS induced by LPS in N9 microglial cells. The iNOS protein levels were analyzed by Western blot. Cells were treated with different concentrations of TBIII and t-HL for 1 h and then stimulated with LPS (100 ng/mL) for 24 h. The iNOS signal was normalized to the β-actin signal. Parthenolide (PAR, 10 μM) was used as a positive control. The data were obtained from three independent experiments and expressed as the means ± S.E.M. * p < 0.05, ** p < 0.01, *** p < 0.001 versus the LPS-treated group; ^### p < 0.001 versus the control group.
as §2

N9 microglial cells [10] = system: N9 microglial cells
Procedure: as §6, §7

[11] = 25 μM compound, LPS 100 ng/mL, 24 h
[12] = 50 μM compound, LPS 100 ng/mL, 24 h
[13] = read-out: % Inhibition of NO Production, 25 μM compound, LPS 100 ng/mL, 24 h
[14] = read-out: % Inhibition of NO Production, 50 μM compound, LPS 100 ng/mL, 24 h

Structure (SMILES)	viability at 24 h, 25 µM (in vitro) [%]	viability at 24 h, 50 µM (in vitro) [%]	Nitrite [1, 11] [µM]	Nitrite [1, 12] [µM]	inhibition at 25 µM [1, 13] [%]	inhibition at 50 µM [1, 14] [%]	other results
CC1=C(CCC(C)COC2OC(CO)C(O)C(O)C2O)OC2CC3C4CCC5CC(OC6OC(CO)C(O)C(O)C6OC6OC(CO)C(O)C(O)C6O)C(O)CC5(C)C4CCC3(C)C12 (stereo not shown) [Compound 10, Timosaponin D]	111 ± 4.39	110 ± 2.57	29.22 ± 0.60	20.78 ± 2.00	8.57 ± 1.87	34.8 ± 6.27	–
C[C@@H]1O[C@@H](O[C@H]2[C@H](OC(=O)[C@]34CCC(C)(C)C[C@H]3C3=CC[C@@H]5[C@@]6(C)C[C@H](O)[C@H](O[C@@H]7O[C@H](CO)[C@@H](O)[C@H](O)[C@H]7O)C(CO)(CO)[C@@H]6CC[C@@]5(C)[C@]3(C)C[C@H]4O)OC[C@H](O)[C@@H]2O)[C@H](O)[C@H](O)[C@H]1O[C@@H]1OC[C@@H](O)[C@H](O[C@@H]2OC[C@](O)(CO)[C@H]2O)[C@H]1O [Compound 14, Platycodin D]	–	–	28.94 ± 0.40	4.29 ± 0.59	–	–	viability at 24 h, 25 µM ([2]; 25 μM compound): 40.2 ± 9.18%; viability at 24 h, 50 µM ([2]; 50 μM compound): 17.9 ± 1.99%; cell viability reduced to (N9 microglial cells [3]): ≤ 60%; inhibition at 25 µM ([1]; 25 μM compound, LPS 100 ng/mL, 24 h, read-out: % Inhibition of NO Production): 8.65 ± 2.24%; inhibition at 50 µM ([1]; 50 μM compound, LPS 100 ng/mL, 24 h, read-out: % Inhibition of NO Production): 86.5 ± 2.71%; cytotoxicity towards tumor cells [4]: significant cytotoxicity
CC1=C(CCC(C)COC2OC(CO)C(O)C(O)C2O)OC2CC3C4CCC5CC(OC6OC(CO)C(O)C(O)C6OC6OC(CO)C(O)C(O)C6O)CCC5(C)C4CCC3(C)C12 (stereo not shown) [Compound 11, Timosaponin BIII]	120 ± 11.8	–	8.55 ± 0.25	4.24 ± 0.10	–	–	NF-κB signaling / p65 subunit into nuclei (NF-κB): no effect; IL-6 production (protein) (IL-6 [5]): significantly suppressed; TNF-α mRNA expression (TNF-α [6]): significantly suppressed; TNF-α production (protein) (TNF-α [7]): significantly suppressed; phosphorylation of Akt / PI3K/Akt signaling activation (Akt): attenuated; antidepressive activity [8]: antidepressive activity; IL-6 mRNA expression (IL-6 [9]): significantly suppressed; % Inhibition of NO Production ([1]; 50 μM compound, LPS 100 ng/mL, 24 h, 50 µM): 86% and 86.67 ± 0.37 %; iNOS protein expression (iNOS): significantly attenuated; cytotoxicity against N9 microglial cells (in words) (N9 microglial cells [10]): non-cytotoxic; % Cell Viability (N9 microglial cells [10]; mouse, 24 h, 50 µM): 74.93 ± 3.15 %
CCC1C(OC(=O)CCC(C)COC2OC(CO)C(O)C(O)C2O)CC2C3CCC4CC(OC5OC(CO)C(O)C(O)C5OC5OC(CO)C(O)C(O)C5O)CCC4(C)C3CCC12C (stereo not shown) [Compound 19, Anemarnoside A]	124 ± 3.13	126 ± 3	23.63 ± 1.13	9.83 ± 0.30	25.2 ± 8.72	66.9 ± 2.82	–
COC1(CCC(C)COC2OC(CO)C(O)C(O)C2O)OC2CC3C4CC=C5CC(O)CC(OC6OC(C)C(O)C(OC7OCC(O)C(O)C7O)C6OC6OC(CO)C(O)C(O)C6O)C5(C)C4CCC3(C)C2C1C (stereo not shown) [Compound 9, Spicatoside B]	99.7 ± 3.13	94.3 ± 3.21	34.46 ± 0.41	24.20 ± 0.29	-8.22 ± 1.3	24 ± 0.9	–
CC(CCC1(O)OC2CC3C4CCC5CC(OC6OC(CO)C(OC7OC(C)C(O)C(O)C7O)C(O)C6OC6OC(C)C(O)C(O)C6O)C(O)CC5(C)C4CCC3(C)C2C1C)COC1OC(CO)C(O)C(O)C1O (stereo not shown) [Compound 8, Tuberoside G]	113 ± 4.14	99.3 ± 2.46	35.05 ± 0.68	27.65 ± 0.74	-10.8 ± 2.14	13.2 ± 2.32	–
